# Reference: US9572786B2, “Use of capsiate or dihydrocapsidate” (Catholic University Industry Academy Cooperation Foundation, priority 2007, dated 2017)
# Experiments:
# [1] = tested on: COX-2; assay: UV-induced COX-2 expression, Western blotting; format: cell-based, human; conditions: HaCaT cells; 10, 25, 50 μM; UV 100 J/m^2; 16 hours
# Procedure: In order to investigate the effect of capsiate on UV-induced COX-2 expression in human keratinocytes, 5×10^5 HaCaT cells were placed on a 60 mm Petri dish and cultured for 24 hours in DMEM containing 10% FBS.
# Subsequently, the cells were cultured for 24 hours in DMEM containing 1% FBS until starvation. Then, after treating with capsiate for 30 minutes at different concentrations (10 μM, 25 μM, 50 μM), followed by washing 3 times with PBS, UV was irradiated at an intensity of 100 J/m^2 in order to induce the expression of COX-2. Immediately after the UV irradiation, the cells were washed again with PBS and further cultured for 16 hours in DMEM containing 1% FBS, which was treated with capsiate at the same concentration as in the pre-treatment.
# Western blotting was carried out as follows in order to evaluate the degree of COX-2 expression in the cells. […]
# In order to investigate the effect of dihydrocapsiate on UV-induced COX-2 expression in human keratinocytes, the degree of COX-2 expression was evaluated in the same manner as Example 2-1, except for using dihydrocapsiate instead of capsiate.
# [2] = tested on: HUVEC; assay: Cell cycle analysis by FACS; format: cell-based, human; conditions: 1, 5, 10, 25 μM, 10 ng/mL VEGF, 20 hours
# Procedure: In order to identify the mechanism of the inhibition of proliferation of endothelial cells confirmed in Example 9, fluorescence-activated cell sorting (FACS) analysis was carried out on the cells at different phases of cell cycle.
# 3×10^5 HUVEC were placed on a 60 mm plate and cultured for 24 hours. After washing twice with M199 medium (Invitrogen, USA), the cells were cultured in M199 medium containing 1% FBS for 6 hours. After adding capsiate or dihydrocapsiate at different concentrations (1 μM, 5 μM, 10 μM, 25 μM), followed by pre-culturing for 30 minutes, 10 ng/mL VEGF was added and the cells were cultured for 20 hours. Then, the cells were fixed with ethanol cooled in ice. The fixed cells were dehydrated in PBS containing 2% FBS and 0.1% Tween 20 at 4° C. for 30 minutes. After centrifuge, the cells were lysed in the same buffer solution. After treating with RNase (37° C., 1 hr), followed by staining with propidium iodide, analysis was carried out using a FACS analyzer (FACScan DB PharMingen flow cytometer).
# [3] = tested on: cyclin A; assay: Cyclin expression, Western blotting: cyclin A; format: cell-based, human; conditions: HUVEC; 1, 5, 10, 25 μM; 10 ng/mL VEGF; 12 hours
# Procedure: 3×10^5 HUVEC were placed on a 60 mm plate and cultured for 24 hours. After washing twice with M199 medium (Invitrogen, USA), the cells were cultured in M199 medium containing 1% FBS for 6 hours. After adding capsiate or dihydrocapsiate at different concentrations (1 μM, 5 μM, 10 μM, 25 μM), followed by pre-culturing for 30 minutes, 10 ng/mL VEGF was added and the cells were cultured for 12 hours. The cells were collected and proteins obtained therefrom were quantitated and the expression level of the proteins was identified by Western blotting using antibodies of cyclin D1, cyclin E and cyclin A.
# [4] = tested on: HUVEC; assay: Chemotactic mobility, Transwell assay; format: cell-based, human; conditions: 1, 5, 10, 25 μM; 4 hours
# Procedure: Transwell assay (Corning Costar, USA) was carried out in order to investigate the effect of capsiate or dihydrocapsiate on chemotactic mobility of HUVEC [Lee O H et al., 1999, Biochem. Biophys. Res. Commun. 264; 743-750].
# In brief, the bottom side of a filter was coated with 10 μg of gelatin and M199 medium containing VEGF and 1% FBS was added to the lower well. HUVEC were prepared by treating with trypsin and diluting in M199 medium containing 1% FBS to a concentration of 1×10^6 cells/mL. Capsiate or dihydrocapsiate at different concentrations (1 μM, 5 μM, 10 μM, 25 μM) were pre-treated at room temperature for 30 minutes. The cells in […] of medium were added to the upper well and cultured at 37° C. for 4 hours. After fixation, followed by staining with hematoxylin and eosin, the cells remaining on the top surface of the filter without moving were removed. The cells that migrated to the bottom side of the filter were observed and counted using an optical microscope (×200).
# [5] = tested on: VE-cadherin; assay: Tyrosine phosphorylation of VE-cadherin, Western blotting; format: cell-based, human; conditions: HUVEC; 5, 10, 25 μM; 50 ng/mL VEGF
# Procedure: Because VEGF is known to induce tyrosine phosphorylation of VE-cadherin and thereby regulate permeability between endothelial cells by making the intercellular contact loose [Esser S. et al., 1998, J. Cell Sci., 111: 1853-1865], the inhibition effect on tyrosine phosphorylation of VE-cadherin was investigated.
# 3.5×10^5 HUVEC were placed on a 60 mm plate and cultured for 24 hours. After washing twice with M199 medium (Invitrogen, USA), the cells were cultured in M199 medium containing 1% FBS for 6 hours. After treating with capsiate or dihydrocapsiate at different concentrations (5 μM, 10 μM, 25 μM) for 30 minutes, followed by pre-culturing for 30 minutes, the cells were cultured for 6 hours after adding 50 ng/mL VEGF. Proteins were collected from the cells and, after quantitation, subjected to Western blotting using VE-cadherin antibody in order to identify the level of protein expression.
# [6] = tested on: C57/BL6 mouse; assay: Mouse Matrigel plug assay; format: in vivo; conditions: 60 μg in 0.6 mL Matrigel with 100 ng VEGF, subcutaneous injection, 6 days
# Procedure: Mouse Matrigel plug was carried out in order to investigate the effect of capsiate or dihydrocapsiate on VEGF-induced angiogenesis in vivo [Min K J et al., 2007, Blood, 15: 1495-1502].
# 0.6 mL of Matrigel containing 60 μg of capsiate or dihydrocapsiate, 100 ng of VEGF and 10 units of heparin or Matrigel containing 100 ng of VEGF only was administered to C57/BL6 mouse (Orient, Korea) through subcutaneous injection. 6 days later, the produced Matrigel plug was taken out.
SMILES,UV-induced COX-2 expression [1],number of endothelial cells in G1 arrest phase [2],VEGF-increased cyclin A expression in protein level [3],VEGF-increased chemotactic mobility of HUVEC [4],VEGF-induced phosphorylation of VE-cadherin [5],VEGF-induced angiogenesis in Matrigel plug (colour) [6]
COc1cc(COC(=O)CCCCCCC(C)C)ccc1O [dihydrocapsiate],decrease of the increased COX-2 expression in a concentration-dependent manner,increase of the number of endothelial cells in G1 arrest phase,concentration-dependent decrease,decreased in a concentration-dependent manner,decreased in a concentration-dependent manner,angiogenesis hardly occurred
COc1cc(COC(=O)CCCC/C=C/C(C)C)ccc1O [capsiate],decreased in a concentration-dependent manner,increase of the number of endothelial cells in G1 arrest phase,concentration-dependent decrease,decreased in a concentration-dependent manner,decreased in a concentration-dependent manner,angiogenesis hardly occurred
